Consider one compound from US20230033849A1, “CBD SUNSCREEN FORMULATIONS AND USES THEREOF” (JUPITER WELLNESS, INC., priority 2021, published 2023).

Test [1] deals with Human primary epidermal melanocytes (ATCC PCS200-013). Put plainly: MTT cell viability assay of melanocytes after UVB irradiation. The class given is cell-based. The following applies: Melanocyte, light or radiation study, approximately 60 mJ/cm^2, 0 μM control 16%, read-out: viability after UV irradiation. The method, then: (§1) Human primary epidermal melanocytes (ATCC PCS200-013) and keratinocytes (ATCC PCS 200-011) cell-lines were cultured using serum free complete growth media (ATCC PCS 200-030). Cells were cultured at 37 C.° with 5% CO2. Cells were grown to 80% confluence before being washed with PBS buffer (37° C.) and trypsinized with EDTA-trypsin. A small aliquot of cells was stained with Trypan blue and counted using a haemocytometer. The remaining cells were plated in a 24 well plate with 300 uL of complete growth media (ATCC) for UV experimentation. Approximately 27*10^3 cells were added to each well. Twenty-four hours after inoculation, individual wells were treated with one of three different concentrations of CBD isolate (CBD Brands, Jupiter, Fla.) or left untreated (control). The concentrations of CBD used were 1 μM, 4 μM and 8 μM, respectively.
After CBD treatment for 1 hour, all cells were washed and with chilled (4° C.) PBS buffer. UV exposure experiments were conducted in chilled PBS buffer to avoid heat stress. Cells were irradiated with UVB light (Dermalight 80, UVB lamp). The distance of the lamp to the wells of the plate was kept constant at 3 cm. Exposure times were determined prior to the experiment, empirically, by exposing different wells to increasing UV exposure time and next conducting an MTT assay. […] The chosen exposure time was based on the exposure time that led to greater than 40% cell viability versus untreated cells determined by MTT assay. CBD treated cells were exposed to UV light for this predetermined time of 10 seconds (approximately 60 mJ/cm^2). After exposure the effect of CBD on cell viability was evaluated by an MTT assay. Control cells were cultured in parallel with no CBD treatment, but underwent UVB irradiation.

The test system of test [2] is Human primary epidermal keratinocytes (ATCC PCS 200-011). The experiment in a line: MTT cell viability assay of keratinocytes after UVB irradiation. The class given is cell-based. Conditions: CBD 1 μM, 4 μM and 8 μM for 1 hour before UVB, 10 seconds (approximately 60 mJ/cm^2), cells not treated with CBD 17%. As for the experimental part: as §1
After CBD treatment for 1 hour, all cells were washed and with chilled (4° C.) PBS buffer. […] Exposure times were determined prior to the experiment, empirically, by exposing different wells to increasing UV exposure time and next conducting an MTT assay. […] The chosen exposure time was based on the exposure time that led to greater than 40% cell viability versus untreated cells determined by MTT assay. […] After exposure the effect of CBD on cell viability was evaluated by an MTT assay. […]

With `C=C(C)[C@@H]1CCC(C)=C[C@H]1c1c(O)cc(CCCCC)cc1O` [CBD, cannabidiol], the viability at 1 µM in test [1] (1 μM CBD for 1 hour before UVB) turned out to be 48%. The viability at 4 µM in test [1] (4 μM CBD for 1 hour before UVB) amounted to 65%. Besides, in test [1] (8 μM CBD for 1 hour before UVB), the viability at 8 µM was 12%. In addition, the “cell viability after irradiation with UVB” value in test [2] is on record as “dose dependent increase in cell viability”.
